Measured values as given in patent US9549935B2, “Methods and compositions for treating migraines using noribogaine” (DemeRx, Inc., priority 2014, dated 2017).

Assays:
[1] = Time to resumption of opioid substitution treatment (OST) in opioid-dependent patients; assay type: in vivo, human
[2] = Serum noribogaine pharmacokinetics in opioid-dependent patients (Phase IB); details: 60, 120, 180 mg cohorts
[3] = Treatment emergent adverse events in opioid-dependent participants (Phase IB)
[4] = Opiate withdrawal scales (COWS, SOWS, OOWS) in opioid-dependent patients; assay type: in vivo, human; details: single 120 mg dose, first six hours following dosing
Procedure: Patients were evaluated based on the Clinical Opiate Withdrawal Scale (COWS), Subjective Opiate Withdrawal Scale (SOWS), and Objective Opiate Withdrawal Scale (OOWS) scoring systems over the period of time between administration of noribogaine (or placebo) until resumption of OST. These scales are outlined in Guidelines for the Psychosocially Assisted Pharmacological Treatment of Opioid Dependence, World Health Organization, Geneva (2009), Annex 10, which is incorporated herein by reference in its entirety. The scales measure the intensity of withdrawal symptoms, based on clinical, subjective, and objective indicia.

[5] = Pupillary miosis assessed by pupillometry in healthy volunteers; assay type: in vivo, human; details: 3-60 mg single oral doses vs placebo, up to 216 hours, p>0.9
Procedure: Pulse oximetry and capnography data were collected continuously using a GE Carescape B650 monitoring system from 2 hours prior to dosing and until six hours after dosing, and thereafter at 12, 24, 48 and 72 hours post-dosing. Additional oximetry data were collected at 120, 168 and 216 hours. Pupillary miosis was assessed by pupillometry. Dark-adapted pupil diameter was measured in triplicate using a Neuroptics PLR-200 pupillometer under standardized light intensity (<5 lux) pre-dose, and at 2, 4, 6, 12, 24, 48, 72, 96, 120, 168 and 216 hours post-dosing.
Summary statistics (means, standard deviations, and coefficients of variation) were determined for each dose group for safety laboratory test data, ECG and pharmacokinetic parameters, and pharmacodynamic variables. Categorical variables were analysed using counts and percentages. Dose-proportionality of AUC and Cmax was assessed using linear regression. The effect of dose on pharmacodynamic parameter values over time was assessed using two-factor analysis of variance (ANOVA). Pairwise comparisons (with Tukey-Kramer adjustment) between each dose group to the placebo were conducted at each time point using the least squares estimates obtained from the ANOVA, using SAS Proc Mixed (SAS ver 6.0).

[6] = QT interval evaluation in opioid-dependent patients; assay type: in vivo, human; details: 60, 120, 180 mg, first 24 hours post administration
Procedure: Patients' QT intervals were evaluated at regular time points throughout the study.

CC[C@H]1CC2C[C@H]3c4[nH]c5ccc(O)cc5c4CCN(C2)C13 [Noribogaine, noribogaine]
average time to resumption of opioids (OST) ([1]; single 120 mg dose): greater than 20 hours
average time to resumption of opioids (OST) ([1]; single 180 mg dose): still longer than untreated patients (7 hours, not shown) or those administered 60 mg noribogaine
dose dependence of maximum serum concentration (Cmax) [2]: increased in a dose-dependent manner
frequency of headaches ([3]; 60 mg treatment group): frequent
frequency of headaches ([3]; 120 mg and 180 mg dose groups): attenuated
hallucinatory effects ([3]; 60-180 mg, opioid-dependent participants): no hallucinatory effects
Treatment Emergent AE: Catheter Site Infection ([3]; single 60 mg dose, N = 6): 0
Treatment Emergent AE: Catheter Site Pain ([3]; single 60 mg dose, N = 6): 0
Treatment Emergent AE: Catheter Site Related Reaction ([3]; single 60 mg dose, N = 6): 0
Treatment Emergent AE: Cellulitis ([3]; single 60 mg dose, N = 6): 0
Treatment Emergent AE: Diarrhoea ([3]; single 60 mg dose, N = 6): 0
Treatment Emergent AE: Dry Mouth ([3]; single 60 mg dose, N = 6): 0
Treatment Emergent AE: Ear and Labyrinth Disorders ([3]; single 60 mg dose, N = 6): 0
Treatment Emergent AE: Epistaxis ([3]; single 60 mg dose, N = 6): 0
Treatment Emergent AE: Euphoric Mood ([3]; single 60 mg dose, N = 6): 0
Treatment Emergent AE: General Disorders and Administration Site Conditions ([3]; single 60 mg dose, N = 6): 0
Treatment Emergent AE: Hyperaesthesia ([3]; single 60 mg dose, N = 6): 0
Treatment Emergent AE: Infections and Infestations ([3]; single 60 mg dose, N = 6): 0
Treatment Emergent AE: Limb Discomfort ([3]; single 60 mg dose, N = 6): 0
Treatment Emergent AE: Malaise ([3]; single 60 mg dose, N = 6): 0
Treatment Emergent AE: Nausea ([3]; single 60 mg dose, N = 6): 0
Treatment Emergent AE: Oropharyngeal Pain ([3]; single 60 mg dose, N = 6): 0
Treatment Emergent AE: Pseudoparalysis ([3]; single 60 mg dose, N = 6): 0
Treatment Emergent AE: Respiratory, Thoracic and Mediastinal Disorders ([3]; single 60 mg dose, N = 6): 0
Treatment Emergent AE: Rhinorrhoea ([3]; single 60 mg dose, N = 6): 0
Treatment Emergent AE: Skin Discomfort ([3]; single 60 mg dose, N = 6): 0
Treatment Emergent AE: Skin Irritation ([3]; single 60 mg dose, N = 6): 0
Treatment Emergent AE: Skin and Subcutaneous Tissue Disorders ([3]; single 60 mg dose, N = 6): 0
Treatment Emergent AE: Somnoience ([3]; single 60 mg dose, N = 6): 0
Treatment Emergent AE: Tinnitus ([3]; single 60 mg dose, N = 6): 0
Treatment Emergent AE: Tremor ([3]; single 60 mg dose, N = 6): 0
Treatment Emergent AE: Urinary Tract Infection ([3]; single 60 mg dose, N = 6): 0
Treatment Emergent AE: Vomiting ([3]; single 60 mg dose, N = 6): 0
Treatment Emergent AE: Back Pain ([3]; single 120 mg dose, N = 6): 0
Treatment Emergent AE: Catheter Site Infection ([3]; single 120 mg dose, N = 6): 0
Treatment Emergent AE: Catheter Site Related Reaction ([3]; single 120 mg dose, N = 6): 0
Treatment Emergent AE: Depressed Mood ([3]; single 120 mg dose, N = 6): 0
Treatment Emergent AE: Dry Eye ([3]; single 120 mg dose, N = 6): 0
Treatment Emergent AE: Dyspepsia ([3]; single 120 mg dose, N = 6): 0
Treatment Emergent AE: Euphoric Mood ([3]; single 120 mg dose, N = 6): 0
Treatment Emergent AE: Limb Discomfort ([3]; single 120 mg dose, N = 6): 0
Treatment Emergent AE: Malaise ([3]; single 120 mg dose, N = 6): 0
Treatment Emergent AE: Musculoskeletal and Connective Tissue Disorders ([3]; single 120 mg dose, N = 6): 0
Treatment Emergent AE: Psychiatric Disorders ([3]; single 120 mg dose, N = 6): 0
Treatment Emergent AE: Somnoience ([3]; single 120 mg dose, N = 6): 0
Treatment Emergent AE: Urinary Tract Infection ([3]; single 120 mg dose, N = 6): 0
Treatment Emergent AE: Catheter Site Infection ([3]; single 180 mg dose, N = 6): 0
Treatment Emergent AE: Catheter Site Pain ([3]; single 180 mg dose, N = 6): 0
Treatment Emergent AE: Depressed Mood ([3]; single 180 mg dose, N = 6): 0
Treatment Emergent AE: Diarrhoea ([3]; single 180 mg dose, N = 6): 0
Treatment Emergent AE: Dry Eye ([3]; single 180 mg dose, N = 6): 0
Treatment Emergent AE: Dyspepsia ([3]; single 180 mg dose, N = 6): 0
Treatment Emergent AE: Ear and Labyrinth Disorders ([3]; single 180 mg dose, N = 6): 0
Treatment Emergent AE: Epistaxis ([3]; single 180 mg dose, N = 6): 0
Treatment Emergent AE: Euphoric Mood ([3]; single 180 mg dose, N = 6): 0
Treatment Emergent AE: Hyperaesthesia ([3]; single 180 mg dose, N = 6): 0
Treatment Emergent AE: Malaise ([3]; single 180 mg dose, N = 6): 0
Treatment Emergent AE: Oropharyngeal Pain ([3]; single 180 mg dose, N = 6): 0
Treatment Emergent AE: Pseudoparalysis ([3]; single 180 mg dose, N = 6): 0
Treatment Emergent AE: Psychiatric Disorders ([3]; single 180 mg dose, N = 6): 0
Treatment Emergent AE: Respiratory, Thoracic and Mediastinal Disorders ([3]; single 180 mg dose, N = 6): 0
Treatment Emergent AE: Rhinorrhoea ([3]; single 180 mg dose, N = 6): 0
Treatment Emergent AE: Skin Discomfort ([3]; single 180 mg dose, N = 6): 0
Treatment Emergent AE: Skin Irritation ([3]; single 180 mg dose, N = 6): 0
Treatment Emergent AE: Skin and Subcutaneous Tissue Disorders ([3]; single 180 mg dose, N = 6): 0
Treatment Emergent AE: Somnoience ([3]; single 180 mg dose, N = 6): 0
Treatment Emergent AE: Tinnitus ([3]; single 180 mg dose, N = 6): 0
Treatment Emergent AE: Tremor ([3]; single 180 mg dose, N = 6): 0
withdrawal symptoms (COWS, OOWS, SOWS scores) [4]: fewer withdrawal symptoms than the other patients
pupillary constriction (dark-adapted pupil diameter) [5]: no evidence of pupillary constriction
QT interval prolongation (ΔQTcl) [6]: dose-dependent increase in QT interval prolongation
